Where two headings read alike, the source gives them in different places.
How the values were obtained:
[1] = system: T1, endogenously expressed A1AR in DRG neurons; test: Live-cell confocal imaging of dorsal root ganglion (DRG) neurons; format: cell-based, rat
T1 construct: supporting the potential of the probe for selectively labeling endogenously expressed A1ARs; from tissue; host or cells: primary dorsal root ganglion neurons from adult male Sprague-Dawley rats
Text: Finally, we evaluated the utility of ligand-directed probe 11 to selectively label and visualize the localization and distribution of endogenously expressed A1AR in a physiologically relevant system. Studies have shown that activation of A1ARs expressed on peripheral nociceptive neurons produces analgesic effects,[14],[17],[71] thereby supporting the clinical potential of targeting the A1ARs for the treatment of neuropathic pain. Dorsal root ganglion (DRG) neurons are sensory cells involved in the transmission of pain and they are reported to express the A1AR[72]−[75] along with its cognate adenosine A2AAR[76]−[78] and A3AR[74],[79] receptor subtypes.
Figure 9 Live-cell confocal imaging of dorsal root ganglion (DRG) neurons labeled with SulfoCy5 by ligand-directed chemistry using probe 11 (250 nM). […] Left-hand side frames represent the SulfoCy5 channel, middle frames represent brightfield and right-hand side frames represent merged images from both channels. Images are representative of images acquired in four independent experiments. Scale bar: 10 μm. […]
plates (Nunc Lab-Tek, Thermo Fischer Scientific), pre-coated with Poly-D-Lysine, at 20,000 cells per well in DMEM/10% FCS. 24 h post seeding, cells were transiently transfected with human SNAP-A1. Transient transfections were carried out following manufacturer’s protocol: used FuGENE (Promega) HD at 3:1 ratio of reagent to cDNA with a total of 300 ng cDNA per well. Transfection solutions were made up in Gibco Opti-MEM (Thermo Fischer Scientific), incubated at RT for 5 min and added as 11 µL per well. Cells were incubated for additional 24 h at 37 OC, 5% CO2. Transient Transfection of NanoLuc-tagged human A 2AAR in HEK293T cell line was carried out as follows: 72 h prior to the experiment cells were removed from a confluent T75 flask and centrifuged. The pellet of cells was resuspended in 10 mL of fresh complete DMEM. […]

NL-rA1AR = biological target: T2, NL-rA1AR (Rattus norvegicus, UniProt P25099); test: NanoBRET competition ligand-binding assay (CA200645 tracer), NL-rA1AR
T2 construct: expressed in transfected cells
T2 sequence (P25099 1-326): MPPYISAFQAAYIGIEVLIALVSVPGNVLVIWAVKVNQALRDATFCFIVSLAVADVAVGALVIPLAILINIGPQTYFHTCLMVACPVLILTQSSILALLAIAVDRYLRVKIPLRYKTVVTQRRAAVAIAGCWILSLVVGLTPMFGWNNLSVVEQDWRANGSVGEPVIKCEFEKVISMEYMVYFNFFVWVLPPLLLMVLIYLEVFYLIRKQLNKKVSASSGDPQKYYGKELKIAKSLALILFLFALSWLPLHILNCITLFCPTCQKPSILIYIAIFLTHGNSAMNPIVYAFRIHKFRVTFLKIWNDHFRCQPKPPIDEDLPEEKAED

SMILES | labeling of live DRG neurons ([1]; 250 nM, 2 h, adult Sprague-Dawley rat DRG) | labeling of DRG neurons after pretreatment with ZM241385 ([1]; 10 μM A2AAR-selective antagonist ZM241385) | fluorescence in DRG neurons after pretreatment with DPCPX ([1]; 10 μM DPCPX pretreatment) | Ki (NL-rA1AR; CA200645 (25 nM) tracer, HEK293T cells, mean ± SEM, read-out: affinity values pKi, NL-rA1AR (converted)) [nM] | Ki (NL-rA1AR; supplementary CSV, read-out: AFFINITY (A1AR_rat) pKi (converted)) [nM]
CCCCn1c(=O)c2[nH]c(C34CCC(C(=O)NCCNC(=O)CCNC(=O)c5ccc(OC(=O)CCCCC[N+]6=C(/C=C/C=C/C=C7/N(C)c8ccc(S(=O)(=O)O)cc8C7(C)C)C(C)(C)c7cc(S(=O)(=O)[O-])ccc76)c(F)c5)(CC3)CC4)nc2n(CCCC)c1=O [Compound 11, 1-(6-(4-((3-((2-(4-(1,3-Dibutyl-2,6-dioxo-2,3,6,7-tetrahydro-1H-purin-8-yl)bicyclo[2.2.2]octane-1-carboxamido)ethyl)amino)-3-oxopropyl)carbamoyl)-2-fluorophenoxy)-6-oxohexyl)-3,3-dimethyl-2-((1E,3E)-5-((E)-1,3,3-trimethyl-5-sulfoindolin-2-ylidene)penta-1,3-dien-1-yl)-3H-indol-1-ium-5-sulfonate] | SulfoCy5-labeling | did not prevent the SulfoCy5 labeling | negligible fluorescence signal |  | 
CCCCn1c(=O)c2[nH]c(C34CCC(C(=O)NCCNC(=O)CCNC(=O)c5ccc(OC(=O)CCC(=O)NCCOCCOCCNC(=O)O[C@H]6CC/C=C/CCC6)c(F)c5)(CC3)CC4)nc2n(CCCC)c1=O [Compound 12, 4-((3-((2-(4-(1,3-Dibutyl-2,6-dioxo-2,3,6,7-tetrahydro-1H-purin-8-yl)bicyclo[2.2.2]octane-1-carboxamido)ethyl)amino)-3-oxopropyl)carbamoyl)-2-fluorophenyl (R,E)-1-(Cyclooct-4-en-1-yloxy)-1,12-dioxo-5,8-dioxa-2,11-diazapentadecan-15-oate] |  |  |  | 10.2 | 8.32

From paper PMC11284787, “Ligand-Directed Labeling of the Adenosine A1 Receptor in Living Cells” (Journal of Medicinal Chemistry, 2024)
